# In paper PMC12084609, “Structural insights into small-molecule agonist recognition and activation of complement receptor C3aR” (The EMBO Journal, 2025):
# Numbering of substitutions follows the chain as printed. Where “and” joins values, the source holds several entries; their conditions need not be identical. Equal entries are not always repeated. Where two headings read alike, the source gives them in different places.
# How the values were obtained:
# Type in all cases: cell-based
# [1] = biological target: C3aR (Homo sapiens, UniProt Q16581); experiment: Gi recruitment BRET assay (C3aR-eYFP / Gαi-Rluc8, HEK293T); details: for ΔBRET (ligand-vehicle): individual replicates
# C3aR, sequence (Q16581 whole entry): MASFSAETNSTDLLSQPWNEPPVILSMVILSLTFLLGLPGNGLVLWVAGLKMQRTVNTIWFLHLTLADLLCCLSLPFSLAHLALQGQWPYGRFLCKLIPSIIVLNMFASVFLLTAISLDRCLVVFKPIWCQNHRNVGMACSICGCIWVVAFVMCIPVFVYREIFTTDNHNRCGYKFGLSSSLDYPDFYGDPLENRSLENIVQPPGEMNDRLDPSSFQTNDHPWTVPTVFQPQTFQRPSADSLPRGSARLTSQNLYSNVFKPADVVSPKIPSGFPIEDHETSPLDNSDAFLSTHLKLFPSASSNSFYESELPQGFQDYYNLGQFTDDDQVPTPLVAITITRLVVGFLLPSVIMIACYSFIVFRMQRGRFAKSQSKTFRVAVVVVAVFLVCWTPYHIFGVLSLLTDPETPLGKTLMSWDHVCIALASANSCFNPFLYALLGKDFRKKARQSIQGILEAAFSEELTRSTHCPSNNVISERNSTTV
# C3aR, sequence (P63096 2-354 partner limits assumed): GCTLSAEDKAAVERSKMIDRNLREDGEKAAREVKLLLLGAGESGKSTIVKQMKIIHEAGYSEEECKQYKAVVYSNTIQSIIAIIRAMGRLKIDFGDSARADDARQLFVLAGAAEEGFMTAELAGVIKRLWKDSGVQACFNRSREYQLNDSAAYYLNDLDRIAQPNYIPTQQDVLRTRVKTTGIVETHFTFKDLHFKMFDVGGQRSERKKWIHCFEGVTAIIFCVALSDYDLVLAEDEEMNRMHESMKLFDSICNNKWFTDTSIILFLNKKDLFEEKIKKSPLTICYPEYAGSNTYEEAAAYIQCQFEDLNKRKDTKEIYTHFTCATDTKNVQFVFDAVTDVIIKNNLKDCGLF
# C3aR, sequence (P62873 2-340 partner limits assumed): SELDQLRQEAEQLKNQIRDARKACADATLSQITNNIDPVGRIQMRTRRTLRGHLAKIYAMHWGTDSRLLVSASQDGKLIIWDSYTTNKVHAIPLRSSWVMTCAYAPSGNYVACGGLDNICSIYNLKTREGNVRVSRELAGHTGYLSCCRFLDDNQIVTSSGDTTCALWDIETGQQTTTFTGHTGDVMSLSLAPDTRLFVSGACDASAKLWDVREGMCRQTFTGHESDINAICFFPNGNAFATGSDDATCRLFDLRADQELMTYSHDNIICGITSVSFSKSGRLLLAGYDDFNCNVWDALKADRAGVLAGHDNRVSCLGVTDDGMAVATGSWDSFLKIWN
# C3aR, sequence (P59768 2-68 partner limits assumed): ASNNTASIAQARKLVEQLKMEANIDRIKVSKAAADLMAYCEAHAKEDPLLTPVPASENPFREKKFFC
# Experimental: HEK293T cells were seeded on 6-well plates (NEST) and transfected with pcDNA3.1 plasmids encoding C3aR-eYFP, Gαi-Rluc8, Gβ1, and Gγ2 with a ratio of 5:1:1:1. After 48 h, cells were harvested and resuspended with in PBS. Cells were treated with test ligand with various concentrations and seeded on 96-well white bottom plates (SPL). After 3 min incubation at 37 °C, coelenterazine h (Nanolight) was added with a final concentration of 10 μM. Luminescence and fluorescence were measured using a Tristar 2 LB 942 multimode reader (Berthold).
# [2] = biological target: T1, C3aR L82^2.64A (Homo sapiens, UniProt Q16581, L82A); experiment: GloSensor-based cAMP assay, C3aR mutant L82A
# T1 construct: expressed in transfected cells; host or cells: HEK293T
# T1 sequence (Q16581 1-482 L82A): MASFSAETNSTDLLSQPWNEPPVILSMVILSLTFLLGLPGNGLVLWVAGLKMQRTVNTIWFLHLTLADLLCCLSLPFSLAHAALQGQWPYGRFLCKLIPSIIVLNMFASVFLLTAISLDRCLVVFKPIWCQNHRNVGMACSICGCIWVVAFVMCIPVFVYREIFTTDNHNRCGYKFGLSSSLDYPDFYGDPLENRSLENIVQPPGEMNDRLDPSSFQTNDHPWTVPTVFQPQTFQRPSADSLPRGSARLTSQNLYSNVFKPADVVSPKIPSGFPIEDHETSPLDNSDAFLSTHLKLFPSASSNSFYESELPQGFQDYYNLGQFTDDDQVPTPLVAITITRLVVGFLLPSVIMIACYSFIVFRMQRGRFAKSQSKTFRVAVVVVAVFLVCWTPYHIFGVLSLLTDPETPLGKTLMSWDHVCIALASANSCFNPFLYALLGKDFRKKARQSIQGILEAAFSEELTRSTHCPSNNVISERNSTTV
# Experimental: (§1) HEK293T cells were seeded on 6-well plates (NEST) and transfected with pGlosensor™-22F plasmids (Promega) and pcDNA3.1 plasmids encoding C3aR or its mutants an with N-terminal FLAG tag. After 48 h, cells were detached with Accutase solution (Sigma-Aldrich) and washed with PBS, and resuspended in assay buffer (CO2-independent medium with 0.5 mg mL^−1D-luciferin). 100,000–200,000 cells were seeded on 96-well white bottom plates (SPL) and incubated at 37 °C for 45 min followed by 45 min incubation at room temperature. After 90 min of incubation, basal luminescence signals were recorded. In total, 25 μl of test ligand with various concentrations and 1 μM Forskolin (Sigma-Aldrich) were treated to the cells and luminescence signals were measured by Tristar 2 LB 942 multimode reader (Berthold). […] Relative luminescence unit (%) was calculated with the signal of wells treated with vehicle as 0% and the signal of wells treated with 1 μM Forskolin as 100% (DiRaddo et al, [2014]). Nonlinear regression was performed using a three-parameter logistic equation.
# [3] = biological target: T2, C3aR I98^3.28A (Homo sapiens, UniProt Q16581, I98A); experiment: GloSensor-based cAMP assay, C3aR mutant I98A
# T2 construct: expressed in transfected cells; host or cells: HEK293T
# T2 sequence (Q16581 1-482 I98A): T1 sequence (Q16581 1-482 L82A) with A82L, I98A
# Experimental: as §1
# [4] = biological target: T3, C3aR D417^7.35A (Homo sapiens, UniProt Q16581, D417A); experiment: GloSensor-based cAMP assay, C3aR mutant D417A
# T3 construct: expressed in transfected cells; host or cells: HEK293T
# T3 sequence (Q16581 1-482 D417A): T1 sequence (Q16581 1-482 L82A) with A82L, D417A
# Experimental: as §1
# [5] = Dunnett's multiple comparisons test, WT minus mutant
smiles,measurement,setting,value
"Cc1cc(C(c2ccc(Cl)cc2)c2ccc(Cl)cc2)sc1C(=O)N[C@@H](CCCNC(=N)N)C(=O)O [JR14a, reference compound]",ΔBRET (ligand-vehicle),[1]; Log[ligand (M)] -6,0.012 and 0.008 and 0.015 and 0.018
same,ΔBRET (ligand-vehicle),[1]; Log[ligand (M)] -7,0.005 and 0.015 and 0.017
same,ΔBRET (ligand-vehicle),[1]; Log[ligand (M)] -8,0.004 and 0.00244 and 0.012 and 0.018
same,ΔBRET (ligand-vehicle),[1]; Log[ligand (M)] -9,0.002 and -0.000881 and 0.00951 and 0.012
same,ΔBRET (ligand-vehicle),[1]; Log[ligand (M)] -10,0.00084 and -0.0022 and 0.006 and 0.009
same,ΔBRET (ligand-vehicle),[1]; Log[ligand (M)] -11,0.001 and -0.004 and 0.005 and 0.010
same,ΔBRET (ligand-vehicle),[1]; Log[ligand (M)] -12,-6.28e-5 and 0.00465 and 0.004
same,EC50,"[1]; dose-dependent increase in BRET ratio, read-out: EC50",5 nM
same,EC50,"[1]; pEC50 ± SEM, Gi recruitment to C3aR, Appendix Table S1A",4.57 nM
same,Span Value,"[1]; span of ΔBRET curve, Figure EV1A numerical data",0.010
same,"Mean Diff. of pIC50, WT vs. L82A",[2]; [5],-0.402
same,IC50,"[2]; IC50, L82^2.64A, dose-response plot",2.07 nM
same,remaining activity at 1 µM,"[2]; L82A, Log[JR14a (M)] -6, single replicates, read-out: cAMP response (% Forskolin)",9.36%
same,remaining activity at 0.1 µM,"[2]; L82A, Log[JR14a (M)] -7, single replicates, read-out: cAMP response (% Forskolin)",8.92%
same,remaining activity at 0.01 µM,"[2]; L82A, Log[JR14a (M)] -8, single replicates, read-out: cAMP response (% Forskolin)",34.1%
same,remaining activity at 0.001 µM,"[2]; L82A, Log[JR14a (M)] -9, single replicates, read-out: cAMP response (% Forskolin)",62.6%
same,remaining activity at 0.0001 µM,"[2]; L82A, Log[JR14a (M)] -10, single replicates, read-out: cAMP response (% Forskolin)",93.2%
same,remaining activity at 10 pM,"[2]; L82A, Log[JR14a (M)] -11, single replicates, read-out: cAMP response (% Forskolin)",106%
same,ΔpIC50 ± SE of Diff.,[2]; L82^2.64A relative to WT C3aR,0.40 ± 0.14
same,IC50,"[2]; pIC50 (Replicate), L82^2.64A, individual replicates",1.55 nM and 3.39 nM and 1.66 nM
same,IC50,"[2]; pIC50 ± SEM (Mean), L82^2.64A, mean of independent experiments",2.04 nM
same,"Mean Diff. of pIC50, WT vs. I98A",[3]; [5],0.356
same,remaining activity at 0.01 µM,"[3]; I98A, Log[JR14a (M)] -8, single replicates, read-out: cAMP response (% Forskolin)",49.1%
same,remaining activity at 0.001 µM,"[3]; I98A, Log[JR14a (M)] -9, single replicates, read-out: cAMP response (% Forskolin)",88.6%
same,remaining activity at 0.0001 µM,"[3]; I98A, Log[JR14a (M)] -10, single replicates, read-out: cAMP response (% Forskolin)",95.5%
same,remaining activity at 10 pM,"[3]; I98A, Log[JR14a (M)] -11, single replicates, read-out: cAMP response (% Forskolin)",93.5%
same,ΔpIC50 ± SE of Diff.,[3]; I98^3.28A relative to WT C3aR,-0.36 ± 0.02
same,IC50,"[3]; IC50, I98^3.28A, dose-response plot",9.13 nM
same,IC50,"[3]; pIC50 (Replicate), I98^3.28A, individual replicates",6.17 nM and 11.5 nM and 9.77 nM
same,IC50,"[3]; pIC50 ± SEM (Mean), I98^3.28A, mean of independent experiments",8.91 nM
same,remaining activity at 1 µM,"[4]; D417A, Log[JR14a (M)] -6, single replicates, read-out: cAMP response (% Forskolin)",35.7%
same,remaining activity at 0.1 µM,"[4]; D417A, Log[JR14a (M)] -7, single replicates, read-out: cAMP response (% Forskolin)",87.8%
same,remaining activity at 0.001 µM,"[4]; D417A, Log[JR14a (M)] -9, single replicates, read-out: cAMP response (% Forskolin)",105%
same,remaining activity at 0.0001 µM,"[4]; D417A, Log[JR14a (M)] -10, single replicates, read-out: cAMP response (% Forskolin)",104%
same,ΔpIC50 ± SE of Diff.,[4]; D417^7.35A relative to WT C3aR,-2.18 ± 0.05
same,"Mean Diff. of pIC50, WT vs. D417A",[4]; [5],2.176
same,IC50,"[4]; IC50, D417^7.35A, dose-response plot, Not calculated = entire loss of signaling",425 nM
same,IC50,"[4]; pIC50 (Replicate), D417^7.35A, individual replicates",575 nM and 339 nM and 380 nM
same,IC50,"[4]; pIC50 ± SEM (Mean), D417^7.35A, mean of independent experiments, Not calculated = entire loss of signaling",417 nM
